# Experiments:
# [1] = tested on: ISG54 promoter activity in RAW-ISG54 reporter cells; assay: IFN response assay, RAW-ISG54 luciferase reporter cells; format: cell-based, mouse; details: Figure 6A, in complexes with pDNA 3:24 (w:w), overnight
# Method: (§1) The effect of the pDNA:TLR7-TLR2 polyamine molecules complexes on inducing an interferon response was examined. pDNA:TLR7-TLR2 polyamine molecules mixtures (pDNA:TLR7-TLR2 polyamine molecules ratio 3:24, w:w) in serum-free medium or 5% glucose were prepared as described above and added to IFN reporter cells. Luciferase reporter cell lines were used to assay interferon response. A plasmid containing an interferon-inducible luciferase reporter gene was introduced into mouse RAW 264.7 macrophages and mouse B16 melanoma cells, giving rise to the RAW-ISG54 and B16-ISG54 reporter cell lines respectively. Expression of the luciferase reporter gene by the plasmid is under the control of an interferon-inducible promoter (I-ISG54) comprising five interferon-stimulated response elements (ISRE) and the minimal promoter of the human ISG-54K (Interferon Stimulation of a Gene encoding a 54 kDa protein) gene. The ISG-54K gene is induced by interferon regulatory factor 3 (IRF3), which has a key involvement in […] responses (Grandvaux et al. 2002) and the minimal promoter of the human ISG-54K gene contains two ISRE sites and fully inducible by type I interferons (IFN-α and IFN-β) and interferon regulatory factors (IRFs) (Wathelet et al. 1988; Grandvaux et al. 2002).
# (§2) The RAW-ISG54 and B16-ISG54 reporter cell lines were seeded onto 96 well microtiter plates at 100,000 cells per well and 75,000 cells per well respectively. […] The induced luciferase expression was assessed in the reporter cell lines using a coelenterazine-base luminescence assay reagent, the Quanti-LucTM (InvivoGen). Secreted luciferase activity was determined by bioluminescence quantification of the cell culture media using a microplate luminometer (FLUOstar OPTIMA from BMG Labtech).
# [2] = tested on: ISG54 promoter activity in B16-ISG54 reporter cells; assay: IFN response assay, B16-ISG54 luciferase reporter cells; format: cell-based, mouse; details: Figure 6B, in complexes with pDNA 3:24 (w:w), overnight
# Method: as §1, §2
# [3] = tested on: HEK293 cells; assay: Cell transfection with SEAP plasmid, HEK293; format: cell-based, human; details: Figure 5A; in complex with pVitro14 LGFP SEAP plasmid, 48 hours, SEAP reporter gene expression
# Method: The TLR7-TLR2 molecules were tested for their ability as polyamine molecules to transport plasmid DNA (pDNA) into cells. The pVitro14 LGFP SEAP plasmid (InvivoGen) was complexed to TLR7-TLR2 polyamine molecules and to the control cationic lipid transfection agent, LyoVec™ (InvivoGen). The human HEK293 (ATCC, CRL-1573) and mouse B16-F1 melanoma (ATCC, CRL-6323) cell lines were seeded at a density of 50 000 cells/well and 20 000 cells/well respectively, in the absence or presence of different volumes of the plasmid encoding for the SEAP protein in complex with TLR7-TLR2 polyamine molecules for 48 hours at 37°C and 10% CO2. Transfection efficiency was assessed by measuring SEAP reporter gene expression: 20 µl of supernatant was sampled and mixed with 180 µl of QUANTI-Blue™ Detection (InvivoGen). In the presence of alkaline phosphatase SEAP, the color of QUANTI-Blue™ changes from pink to purple/blue. The intensity of the blue hue reflects the activity of SEAP. The levels of SEAP secretion were determined quantitatively by reading the OD at 620-655 nm using a spectrophotometer, iMark™ Microplate Reader (BIO-RAD).
SMILES,ability to induce an IFN response (ISG54 promoter activity) in RAW-ISG54 reporter cells [1],ability to induce an IFN response (ISG54 promoter activity) in B16-ISG54 reporter cells [2],ability to transfect HEK293 cells [3]
"CCCCCCCCCCCCCCCC(=O)OCC(CSC[C@H](N)C(=O)NCCCNCCCCNCCCNC(=O)CNC(=O)c1ccc(Cn2c(O)nc3c(N)nc(NCCCC)nc32)cc1)OC(=O)CCCCCCCCCCCCCCC (stereo partly drawn) [CL553, (20R)-20-amino-1-(4-((6-amino-2-(butylamino)-8-hydroxy-9H-purin-9-yl)methyl)phenyl)-1,4,19-trioxo-22-thia-2,5,9,14,18-pentaazapentacosane-24,25-diyl dipalmitate]",induce an IFN response in RAW-ISG54 reporter cells,induce an IFN response in B16-ISG54 reporter cells,transfect HEK293 cells
"CCCCCCCCCCCCCCCC(=O)OCC(CSC[C@H](N)C(=O)N[C@@H](CCC(=O)NCCCNCCCCNCCCN)C(=O)Nc1ccc(Cn2c(O)nc3c(N)nc(NCCCC)nc32)cc1)OC(=O)CCCCCCCCCCCCCCC (stereo partly drawn) [CL527, (6R,9S)-6,25-diamino-9-(4-((6-amino-2-(butylamino)-8-hydroxy-9H-purin-9-yl)methyl)phenylcarbamoyl)-7,12-dioxo-4-thia-8,13,17,22-tetraazapentacosane-1,2-diyl dipalmitate]",induce an IFN response in RAW-ISG54 reporter cells,induce an IFN response in B16-ISG54 reporter cells,transfect HEK293 cells
"CCCCCCCCCCCCCCCC(=O)OCC(CSC[C@H](N)C(=O)N[C@@H](COC(=O)c1ccc(Cn2c(O)nc3c(N)nc(NCCCC)nc32)cc1)C(=O)NCCCNCCCCNCCCN)OC(=O)CCCCCCCCCCCCCCC (stereo partly drawn) [CL514, (6R,9S)-6,23-diamino-9-((4-((6-amino-2-(butylamino)-8-hydroxy-9H-purin-9-yl)methyl)benzoyloxy)methyl)-7,10-dioxo-4-thia-8,11,15,20-tetraazatricosane-1,2-diyl dipalmitate]",induce an IFN response in RAW-ISG54 reporter cells,induce an IFN response in B16-ISG54 reporter cells,transfect HEK293 cells

# From patent EP2769738B1, “Conjugated TLR7 and/or TLR8 and TLR2 polycationic agonists” (Invivogen, priority 2013, dated 2014)
